From PubChem BioAssay (NCI)
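How tested: cells in 96-well plates exposed to compound for 48 hours at five concentrations. Abbreviation: GI50, concentration required for 50% inhibition of growth. TGI: total growth inhibition.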

Key:
Assay in all cases: DTP human tumour cell line panel, 48 h
SK-MEL-5 melanoma = system: SK-MEL-5 melanoma
SF-295 CNS = system: SF-295 CNS
HCT-15 colon = system: HCT-15 colon
SF-539 CNS = system: SF-539 CNS
HCC-2998 colon = system: HCC-2998 colon
SF-268 CNS = system: SF-268 CNS
OVCAR-3 ovarian = system: OVCAR-3 ovarian
T-47D breast = system: T-47D breast
MALME-3M melanoma = system: MALME-3M melanoma
786-0 renal = system: 786-0 renal
HS 578T breast = system: HS 578T breast
SW-620 colon = system: SW-620 colon
UACC-62 melanoma = system: UACC-62 melanoma
SK-OV-3 ovarian = system: SK-OV-3 ovarian
UACC-257 melanoma = system: UACC-257 melanoma
U251 CNS = system: U251 CNS
CCRF-CEM leukemia = system: CCRF-CEM leukemia
SN12C renal = system: SN12C renal
MDA-MB-231 breast = system: MDA-MB-231 breast
CAKI-1 renal = system: CAKI-1 renal
EKVX NSCLC = system: EKVX NSCLC
OVCAR-4 ovarian = system: OVCAR-4 ovarian
NCI/ADR-RES ovarian = system: NCI/ADR-RES ovarian
ACHN renal = system: ACHN renal
SNB-19 CNS = system: SNB-19 CNS
COLO 205 colon = system: COLO 205 colon
A549 NSCLC = system: A549 NSCLC
BT-549 breast = system: BT-549 breast
SK-MEL-28 melanoma = system: SK-MEL-28 melanoma
HOP-92 NSCLC = system: HOP-92 NSCLC
PC-3 prostate = system: PC-3 prostate
TK-10 renal = system: TK-10 renal
HL-60(TB) leukemia = system: HL-60(TB) leukemia
HOP-62 NSCLC = system: HOP-62 NSCLC
NCI-H23 lung = system: NCI-H23 lung
OVCAR-8 ovarian = system: OVCAR-8 ovarian
NCI-H522 lung = system: NCI-H522 lung
LOX IMVI melanoma = system: LOX IMVI melanoma
RPMI-8226 leukemia = system: RPMI-8226 leukemia
NCI-H226 lung = system: NCI-H226 lung
NCI-H460 lung = system: NCI-H460 lung
OVCAR-5 ovarian = system: OVCAR-5 ovarian
HT29 colon = system: HT29 colon
K-562 leukemia = system: K-562 leukemia
A498 renal = system: A498 renal
IGROV1 ovarian = system: IGROV1 ovarian
HCT-116 colon = system: HCT-116 colon
SK-MEL-2 melanoma = system: SK-MEL-2 melanoma
DU-145 prostate = system: DU-145 prostate
RXF 393 renal = system: RXF 393 renal
KM12 colon = system: KM12 colon
MCF7 breast = system: MCF7 breast
SNB-75 CNS = system: SNB-75 CNS
MOLT-4 leukemia = system: MOLT-4 leukemia
SR leukemia = system: SR leukemia
UO-31 renal = system: UO-31 renal
M14 melanoma = system: M14 melanoma

**Q.** With `COc1ccc(-c2cc(=O)[nH]c3c(OC)c4ccccc4c(OC)c23)cc1` as the compound, how does the GI50 (SK-MEL-5 melanoma) read?
**A.** 398 nM

**Q.** And the TGI (SK-MEL-5 melanoma)?
**A.** > 100000 nM

**Q.** What about the GI50 (SF-295 CNS) of the same compound?
**A.** 272 nM

**Q.** What about the GI50 (HCT-15 colon) of the same compound?
**A.** 419 nM

**Q.** And the TGI (HCT-15 colon)?
**A.** > 100000 nM

**Q.** What about the GI50 (SF-539 CNS) of the same compound?
**A.** 393 nM

**Q.** And the GI50 (HCC-2998 colon)?
**A.** 1280 nM

**Q.** And the TGI (HCC-2998 colon)?
**A.** > 23100 nM

**Q.** And the GI50 (SF-268 CNS)?
**A.** 552 nM

**Q.** And the TGI (SF-268 CNS)?
**A.** > 100000 nM

**Q.** And the GI50 (OVCAR-3 ovarian)?
**A.** 165 nM

**Q.** What about the TGI (OVCAR-3 ovarian) of the same compound?
**A.** 713 nM

**Q.** What about the GI50 (T-47D breast) of the same compound?
**A.** 356 nM

**Q.** And the TGI (T-47D breast)?
**A.** > 100000 nM

**Q.** And the GI50 (MALME-3M melanoma)?
**A.** 2990 nM

**Q.** And the TGI (MALME-3M melanoma)?
**A.** > 100000 nM

**Q.** And the GI50 (786-0 renal)?
**A.** 532 nM

**Q.** What about the TGI (786-0 renal) of the same compound?
**A.** > 100000 nM

**Q.** And the GI50 (HS 578T breast)?
**A.** 345 nM

**Q.** What about the GI50 (SW-620 colon) of the same compound?
**A.** 418 nM

**Q.** And the TGI (SW-620 colon)?
**A.** > 100000 nM

**Q.** What about the GI50 (UACC-62 melanoma) of the same compound?
**A.** 396 nM

**Q.** And the TGI (UACC-62 melanoma)?
**A.** > 100000 nM

**Q.** What about the GI50 (SK-OV-3 ovarian) of the same compound?
**A.** 606 nM

**Q.** What about the TGI (SK-OV-3 ovarian) of the same compound?
**A.** > 100000 nM

**Q.** What about the TGI (UACC-257 melanoma) of the same compound?
**A.** > 100000 nM

**Q.** What about the GI50 (U251 CNS) of the same compound?
**A.** 419 nM

**Q.** And the TGI (U251 CNS)?
**A.** > 100000 nM

**Q.** What about the GI50 (CCRF-CEM leukemia) of the same compound?
**A.** 401 nM

**Q.** What about the TGI (CCRF-CEM leukemia) of the same compound?
**A.** > 100000 nM

**Q.** What about the GI50 (SN12C renal) of the same compound?
**A.** 612 nM

**Q.** What about the TGI (SN12C renal) of the same compound?
**A.** > 100000 nM

**Q.** What about the GI50 (MDA-MB-231 breast) of the same compound?
**A.** 1440 nM

**Q.** What about the TGI (MDA-MB-231 breast) of the same compound?
**A.** > 100000 nM

**Q.** What about the GI50 (CAKI-1 renal) of the same compound?
**A.** 376 nM

**Q.** What about the TGI (CAKI-1 renal) of the same compound?
**A.** > 100000 nM

**Q.** What about the GI50 (EKVX NSCLC) of the same compound?
**A.** 2870 nM

**Q.** What about the TGI (EKVX NSCLC) of the same compound?
**A.** > 100000 nM

**Q.** What about the GI50 (OVCAR-4 ovarian) of the same compound?
**A.** 1210 nM

**Q.** What about the TGI (OVCAR-4 ovarian) of the same compound?
**A.** > 100000 nM

**Q.** What about the GI50 (NCI/ADR-RES ovarian) of the same compound?
**A.** 291 nM

**Q.** And the GI50 (ACHN renal)?
**A.** 663 nM

**Q.** And the TGI (ACHN renal)?
**A.** > 100000 nM

**Q.** And the GI50 (SNB-19 CNS)?
**A.** 2060 nM

**Q.** What about the TGI (SNB-19 CNS) of the same compound?
**A.** > 100000 nM

**Q.** What about the GI50 (COLO 205 colon) of the same compound?
**A.** 424 nM

**Q.** What about the TGI (COLO 205 colon) of the same compound?
**A.** 3520 nM

**Q.** And the GI50 (A549 NSCLC)?
**A.** 708 nM

**Q.** What about the TGI (A549 NSCLC) of the same compound?
**A.** > 100000 nM

**Q.** And the GI50 (BT-549 breast)?
**A.** 2330 nM

**Q.** What about the TGI (BT-549 breast) of the same compound?
**A.** > 100000 nM

**Q.** What about the GI50 (SK-MEL-28 melanoma) of the same compound?
**A.** 3450 nM

**Q.** What about the TGI (SK-MEL-28 melanoma) of the same compound?
**A.** > 100000 nM

**Q.** And the GI50 (HOP-92 NSCLC)?
**A.** 409 nM

**Q.** And the TGI (HOP-92 NSCLC)?
**A.** > 100000 nM

**Q.** And the GI50 (PC-3 prostate)?
**A.** 382 nM

**Q.** And the TGI (PC-3 prostate)?
**A.** > 100000 nM

**Q.** And the GI50 (TK-10 renal)?
**A.** > 42400 nM

**Q.** And the TGI (TK-10 renal)?
**A.** > 100000 nM

**Q.** What about the GI50 (HL-60(TB) leukemia) of the same compound?
**A.** 276 nM

**Q.** And the GI50 (HOP-62 NSCLC)?
**A.** 1470 nM

**Q.** And the TGI (HOP-62 NSCLC)?
**A.** > 100000 nM

**Q.** What about the GI50 (NCI-H23 lung) of the same compound?
**A.** 817 nM

**Q.** What about the TGI (NCI-H23 lung) of the same compound?
**A.** > 100000 nM

**Q.** What about the GI50 (OVCAR-8 ovarian) of the same compound?
**A.** 1290 nM

**Q.** What about the TGI (OVCAR-8 ovarian) of the same compound?
**A.** > 100000 nM

**Q.** What about the GI50 (NCI-H522 lung) of the same compound?
**A.** 284 nM

**Q.** What about the TGI (NCI-H522 lung) of the same compound?
**A.** 3260 nM

**Q.** What about the GI50 (LOX IMVI melanoma) of the same compound?
**A.** 655 nM

**Q.** And the TGI (LOX IMVI melanoma)?
**A.** > 100000 nM

**Q.** What about the GI50 (RPMI-8226 leukemia) of the same compound?
**A.** 289 nM

**Q.** And the TGI (RPMI-8226 leukemia)?
**A.** > 20200 nM

**Q.** And the GI50 (NCI-H226 lung)?
**A.** > 20000 nM

**Q.** And the TGI (NCI-H226 lung)?
**A.** > 100000 nM

**Q.** What about the GI50 (NCI-H460 lung) of the same compound?
**A.** 379 nM

**Q.** And the GI50 (OVCAR-5 ovarian)?
**A.** 3580 nM

**Q.** And the TGI (OVCAR-5 ovarian)?
**A.** > 100000 nM

**Q.** What about the GI50 (HT29 colon) of the same compound?
**A.** 342 nM

**Q.** What about the GI50 (K-562 leukemia) of the same compound?
**A.** 346 nM

**Q.** And the TGI (K-562 leukemia)?
**A.** > 100000 nM

**Q.** And the GI50 (A498 renal)?
**A.** 145 nM

**Q.** And the GI50 (IGROV1 ovarian)?
**A.** 470 nM

**Q.** What about the TGI (IGROV1 ovarian) of the same compound?
**A.** > 91500 nM

**Q.** What about the GI50 (HCT-116 colon) of the same compound?
**A.** 380 nM

**Q.** And the TGI (HCT-116 colon)?
**A.** > 100000 nM

**Q.** What about the GI50 (SK-MEL-2 melanoma) of the same compound?
**A.** 486 nM

**Q.** What about the TGI (SK-MEL-2 melanoma) of the same compound?
**A.** > 100000 nM

**Q.** And the GI50 (DU-145 prostate)?
**A.** 671 nM

**Q.** What about the TGI (DU-145 prostate) of the same compound?
**A.** > 100000 nM

**Q.** What about the GI50 (RXF 393 renal) of the same compound?
**A.** 409 nM

**Q.** And the TGI (RXF 393 renal)?
**A.** > 19900 nM

**Q.** And the GI50 (KM12 colon)?
**A.** 323 nM

**Q.** What about the TGI (KM12 colon) of the same compound?
**A.** > 100000 nM

**Q.** And the GI50 (MCF7 breast)?
**A.** 357 nM

**Q.** And the TGI (MCF7 breast)?
**A.** > 100000 nM

**Q.** And the GI50 (SNB-75 CNS)?
**A.** 246 nM

**Q.** And the TGI (SNB-75 CNS)?
**A.** 1680 nM

**Q.** What about the GI50 (MOLT-4 leukemia) of the same compound?
**A.** 914 nM

**Q.** And the TGI (MOLT-4 leukemia)?
**A.** > 100000 nM

**Q.** What about the GI50 (SR leukemia) of the same compound?
**A.** 431 nM

**Q.** What about the TGI (SR leukemia) of the same compound?
**A.** > 100000 nM

**Q.** And the GI50 (UO-31 renal)?
**A.** 725 nM

**Q.** What about the TGI (UO-31 renal) of the same compound?
**A.** > 100000 nM

**Q.** And the GI50 (M14 melanoma)?
**A.** 388 nM
